The text below walks through data of ChEMBL document CHEMBL3877316, “Synthesis of pharmacologically important naphthoquinones and anticancer activity of 2-benzyllawsone through DNA topoisomerase-II inhibition” (Bioorg Med Chem, 2017).

The nature of assay [1]: Antiproliferative activity against human FADU cells after 48 hrs by SRB assay. Format: functional, cell-based. In general terms: The SRB assay estimates cell density from bound dye.
Assay [2] is described as follows: Antiproliferative activity against HEK293 cells after 48 hrs by SRB assay. Format: cell-based. As to conditions: Homo sapiens, HEK293, 48 h.
Assay [3] can be described thus: Antiproliferative activity against human DU145 cells after 48 hrs by SRB assay. In kind it is functional, cell-based. As to conditions: DU-145, 48 h.
Assay [4] is described as follows: Antiproliferative activity against human A549 cells after 48 hrs by SRB assay. In kind it is functional, cell-based. As to conditions: A549, 48 h.
The subject of assay [5] is FaDu. The assay can be described thus: Inhibition of topoisomerase-2 in human FADU cells at 2 times antiproliferative IC50 after 24 hrs by ELISA relative to control. In kind it is cell-based. For orientation: ELISA stands for enzyme-linked immunosorbent assay.
A short description of assay [6]: Antiproliferative activity against human MCF7 cells after 48 hrs by SRB assay. In kind it is functional, cell-based. As to conditions: MCF7, 48 h.
Assay [7] can be described thus: Antiproliferative activity against human DLD1 cells after 48 hrs by SRB assay. Format: functional, cell-based. As to conditions: DLD-1, 48 h.

SMILES strings stand for the structures.

Take `COc1cc([C@@H]2c3cc4c(cc3[C@@H](O[C@@H]3O[C@@H]5CO[C@@H](C)O[C@H]5[C@H](O)[C@H]3O)[C@H]3COC(=O)[C@H]23)OCO4)cc(OC)c1O` [ETOPOSIDE]: the half-inhibitory concentration (IC50) – broadly, the concentration needed to halve the response being measured – in assay [1] was 16 µM; in assay [2] it was 7.51 µM; in assay [3] it was 10.6 µM; in assay [4], over 30 µM; in assay [6], over 30 µM; in assay [7], 8.11 µM. In addition, the inhibition (commonly the share of the control response that was lost under treatment) in assay [5] worked out at 51.7%.
In the case of `COc1cc(COC2=CC(=O)c3ccccc3C2=O)cc(OC)c1OC`, the IC50 in assay [1] is 16.5 µM; in assay [2], over 150 µM; in assay [3], 25.2 µM; in assay [4], 18.9 µM; in assay [6], over 30 µM; in assay [7] it was over 30 µM. In assay [5], this molecule had an inhibition of 14.7%.
With `CC1(C)CCC2=C(O1)c1ccccc1C(=O)C2=O` [LAPACHONE], the midpoint of inhibition in assay [2], the IC50, lay at 25.3 µM. Further, the inhibition in assay [5] was found to be 53.9%.
Consider `CCOC(=O)COC1=C(CC(=O)OCC)C(=O)c2ccccc2C1=O`, for which the IC50 was 21.8 µM in assay [1]; over 150 µM in assay [2]; over 30 µM in assay [3]; 21.1 µM in assay [4]; over 30 µM in assay [6]; over 30 µM in assay [7]. Further, the inhibition in assay [5] is 21.4%.
Regarding `CCOC(=O)COC1=CC(=O)c2ccccc2C1=O`, the IC50 in assay [1] is 19.7 µM; in assay [2], over 150 µM; in assay [3] it was over 30 µM; in assay [4], 15.5 µM; in assay [6], over 30 µM; in assay [7], over 30 µM. Further, the inhibition in assay [5] was 16.8%.
